Data set [1] relates to Sitophilus zeamais. In words: whole plant or invertebrate. The conditions noted are these: Sitophilus zeamais; for EC90: read-out: Fumigant Toxicity LC90 (95% FL). On the procedure:
(§1) The insects used in this study were Sitophilus zeamais Motschulsky (Coleoptera: Curculionidae), identified by the Instituto Colombiano Agropecuario (ICA) under report number R3823M0000425. […] The adult insects used in all the experiments were 6 to 10 days post-emergence.
The treated disks were affixed to the inner surface of the screw cap of 22 mL glass vials. […] All treatments were performed in two independent experiments, each with five replicates.
(§2) Mixtures predicted by the RSM were prepared based on mole fractions. […] Four replicates were performed for each treatment and control across two independent experimental runs.
Dose reduction indices (DRIs) were also calculated to estimate how much the dose of each compound in a synergistic combination could be reduced to achieve a 50% effect (Equation (4)). DRIs were interpreted as favorable when >1, neutral at 1, and unfavorable when <1. Values above the log DRI = 0 line indicate favorable dose reductions.(4) (IRD)i=CL50i(fax)i/(1−(fax)i)^1/mi/(D)i

Data set [2] concerns glutathione S-transferase (GST) activity in S. zeamais. The data set is described as follows: GST activity assay (modified Habig) with S. zeamais protein extract. The format is biochemical, Sitophilus zeamais. Particulars: 120 mg/L. On the procedure:
(§3) Enzymatic assays were performed in the assay buffer, consisting of 0.1 M potassium phosphate buffer (pH 7.2). The compounds and mixtures evaluated in the in vitro assays were prepared in the same buffer supplemented with 0.5% (v/v) Triton X-100 (Sigma-Aldrich®, Saint Louis, MO, USA).
(§4) A modified version of the method described by Oviedo et al. was used. Adults of S. zeamais (8 g; ~3125 insects) were frozen in liquid nitrogen, homogenized in a 1:10 ratio with assay buffer, and centrifuged at 13,000× g for 60 min at 4 °C. The supernatant was filtered, and 20 mM benzamidine was added. The extracts were stored in 5 mL aliquots at −20 °C. Preliminary assays were performed to quantify the specific activity of AChE (0.02–1.00 U/mL), GST (0.1–0.8 U/mL), and CAT (0.1–25 U/mL), and to optimize assay conditions (enzyme dilution: 1/8 to 1% v/v; substrate concentrations: 2 × km or within assay linearity). Each experiment was performed independently three times, with three technical replicates per experiment.
A modified version of Habig’s method was used. The protein extract (50 µL; 0.59 U/mL) was incubated with 50 µL of the compound or mixture (120 mg/L), followed by 50 µL each of CDNB and reduced glutathione (GSH). Kinetic absorbance was measured at 340 nm for 8 min. Blanks (without substrate) and quercetin (positive control) were included. Inhibition (%) was calculated using Equation (5), and treatment differences were evaluated via parametric ANOVA (α = 0.05) in GraphPad Prism 8.0.2 [42, 43]. Each experiment was performed independently three times, with three technical replicates per experiment.(5) % Inhibition=1−Am−AB/AC ×100 where Am is the absorbance of the sample, AB is the absorbance of the blank, and AC is the absorbance of the negative control.

On the set-up of data set [3]: method as in doi:10.1016/B978-0-12-819092-0.00021-2. Particulars: cited from earlier work.
The test system of data set [4] is AChE of S. zeamais. In words: AChE activity assay (modified Ellman) with S. zeamais protein extract. Particulars: for AChE Effect Inhibitor Type: Lineweaver–Burk; for AChE Effect IC50 ± SD / Ki: S. zeamais protein extract; for Ki: read-out: AChE Effect ki ± SD (inhibitory constant). On the set-up: key to AChE Effect Inhibitor Type: C: competitive inhibitor; NC: non-competitive inhibitor. The format is biochemical, Sitophilus zeamais. On the procedure:
The compounds and mixtures evaluated in the in vitro assays were prepared in the same buffer supplemented with 0.5% (v/v) Triton X-100 (Sigma-Aldrich®, Saint Louis, MO, USA).
The supernatant was filtered, and 20 mM benzamidine was added. The extracts were stored in 5 mL aliquots at −20 °C. Preliminary assays were performed to quantify the specific activity of AChE (0.02–1.00 U/mL), GST (0.1–0.8 U/mL), and CAT (0.1–25 U/mL), and to optimize assay conditions (enzyme dilution: 1/8 to 1% v/v; substrate concentrations: 2 × km or within assay linearity).
Then, 50 µL of DTNB and 50 µL of ATChI were added. […] Inhibition percentages were calculated using Equation (5).
(In general: Ellman's reagent forms a yellow product with free thiols.)

Data set [5] relates to Sitophilus zeamais. It counts as in vivo. The conditions noted are these: for Contact Toxicity LD50i (LC-95%): mixtures and their components (Table 3); for Contact Toxicity LD90 (95% FL) / Contact Toxicity LD50 (95% FL): topical, 24 h after exposure. On the procedure:
as §1
Groups of 10 insects, previously placed in Petri dishes, were immobilized by exposure to low temperatures (0 °C). An initial dose of 50.0 µg per adult was applied topically to the dorsal thorax of each insect using aliquots of 0.20 µL from 0.25 mg/µL solutions in n-hexane. […] All treatments were performed in two independent experiments, each with four replicates. Insect mortality was assessed after 24 h, and mortality percentages were calculated using Abbott’s correction formula (Equation (1)).
as §2
Dose reduction indices (DRIs) were also calculated to estimate how much the dose of each compound in a synergistic combination could be reduced to achieve a 50% effect (Equation (4)). DRIs were interpreted as favorable when >1, neutral at 1, and unfavorable when <1.

Data set [6] relates to catalase (CAT) activity in S. zeamais. In words: CAT activity assay (adapted Sinha) with S. zeamais protein extract. It counts as biochemical, Sitophilus zeamais. The conditions noted are these: 120 mg/L. On the procedure: as §3, §4
Sinha’s method was adapted. In Eppendorf tubes, 100 µL of protein extract (24.77 U/mL) was mixed with 100 µL of the compound or mixture (120 mg/L) and incubated at 37 °C for 15 min. Then, 200 µL of H2O2 was added and shaken for 2.5 min. The reaction was stopped by adding 600 µL of K2Cr2O7, followed by incubation at 100 °C for 10 min. A 200 µL aliquot was transferred to a 96-well plate, and absorbance was recorded at 570 nm. Blanks and sodium azide (positive control) were used. The percentage of inhibition was calculated using Equation (5). Differences among treatments were analyzed via ANOVA (α = 0.05) in GraphPad Prism. Each experiment was performed independently three times, with three technical replicates per experiment.

The test system of data set [7] is S. zeamais. The conditions noted are these: 7-day exposure; cited from earlier work.
The test system of data set [8] is S. zeamais. On the set-up: method as in PMID 21173724, PMID 22236213. The conditions noted are these: cited from earlier work.
The conditions of data set [9]: cited from earlier work.
For data set [10], the system named is CAT activity in S. oryzae. On the set-up: method as in PMID 31027573. Particulars: cited from earlier work.
[11] abbreviates: 24 h, read-out: Fumigant Toxicity LC50i (LC-95%).
Where [12] appears, read: in Homo sapiens, 24 h, read-out: Fumigant Toxicity LC50 (95% FL).

“And” between values parts separate entries of the source, which are not always exact repeats. Identical values can stand only once. Like-named read-outs stand apart in the source and are kept apart here.

Results on 10 compounds are retold here after paper PMC12194779, “Synergistic Insecticidal Activity of Plant Volatile Compounds: Impact on Neurotransmission and Detoxification Enzymes in Sitophilus zeamais” (Insects, 2025).

Turning to `CC(C)=C1CC[C@@H](C)CC1=O` [Compound C1, R-(+)-Pulegone], the LC50 in data set [1] (setting [11]) was determined as 0.58 mg/L. For the same compound, the LC50 in data set [1] (setting [12]) is 0.58 µg/mL and 3.81 µM. For the same compound, the EC90 in data set [1] (in Homo sapiens, 24 h) is 0.92 µg/mL and 6.07 µM. Also, the “GST Inhibition λ340 (%)” value in [2] is given as 2.4%. Also, the “LD50 (i.p.)” value in data set [3] (i.p.) is on record as 73 mg/kg. Moreover, the “LD50 (i.v.)” value in [3] (i.v.) was 80 mg/kg. Further, in [3] (oral), the “oral LD50” value is 810 mg/kg. In data set [4] (120 mg/L), this compound yielded an AChE inhibition of 33.52%. In data set [5], the “Contact Toxicity LD50i (LC-95%)” value came out at 4.85 µg/Adult and the “Contact Toxicity LD90 (95% FL)” value was 7.40 (6.79–8.28) µg/Adult. Also, the “CAT Inhibition λ570 nm (%)” value in data set [6] is 4.3%.

Take `CC(C)=C1CC[C@H](C)CC1=O` [Compound C2, S-(−)-Pulegone]: in [1] (setting [11]), the LC50 amounted to 0.97 mg/L. In data set [1] (setting [12]), the LC50 was 0.97 µg/mL and 6.37 µM. Moreover, in data set [1] (in Homo sapiens, 24 h), the EC90 was 1.68 µg/mL and 11.1 µM. The “GST Inhibition λ340 (%)” value in data set [2] is on record as 4.3%. Further, in data set [4], the “AChE inhibition type (Lineweaver–Burk plots), in words” value (“AChE inhibition type” for short) was “competitive inhibition”; the “AChE inhibition, times higher than the R-enantiomer (C1)” value is on record as 2.3 times; the “AChE Effect Inhibitor Type” value is “C”; the “AChE Effect IC50 ± SD” value turned out to be 36.60 ± 3.29 mg/L. Also, in [4], the Ki turned out to be 50.3 ± 0.74 µM. In data set [5], the “Contact Toxicity LD50i (LC-95%)” value stood at 7.44 µg/Adult and the “Contact Toxicity LD90 (95% FL)” value is reported as 9.64 (9.05–10.54) µg/Adult. In data set [6], the “CAT Inhibition λ570 nm (%)” value stood at 2.4%.

In the case of `C=C(C)[C@@H]1CC=C(C)C(=O)C1` [Compound C4, R-(−)-Carvone], the LC50 in data set [1] (setting [12]) was 1.42 µg/mL and 9.48 µM. In data set [1] (in Homo sapiens, 24 h), the EC90 is 2.17 µg/mL and 14.4 µM. Moreover, the LC50 in data set [1] (read-out: LC50 values, fumigant activity (Figure 3)) is 1.42 mg/L. The “Fumigant LC50 reported in 7-day exposure assays” value in data set [7] is 2.76 mg/L. Moreover, the “Contact LD50 previously reported for 7-day assays” value (“Contact LD50 previously reported” for short) in data set [8] is given as 2.79 µg/adult. Besides, in data set [5], the “Contact Toxicity LD50 (95% FL)” value is given as 16.89 (14.56–19.35) µg/Adult and the “Contact Toxicity LD90 (95% FL)” value is 28.45 (24.99–34.24) µg/Adult.

Consider `CCCCCCCCC` [Compound C20, n-Nonane], for which, in data set [1] (setting [12]), the LC50 is 109 µg/mL and 851 µM. Also, the EC90 in [1] (in Homo sapiens, 24 h) was 172 µg/mL and 1.34 mM. Besides, the “Contact LD50 previously reported” value in data set [8] was 17.62 µg/adult. Moreover, in data set [5], the “Contact Toxicity LD50 (95% FL)” value turned out to be 21.42 µg/Adult.

Regarding `C=CCc1ccc(O)c(OC)c1` [Compound C26, Eugenol], the “GST Inhibition λ340 (%)” value in [2] amounted to 24.3%. Also, in data set [5], the “Contact Toxicity LD50i (LC-95%)” value is recorded as 20.90 µg/Adult, the “Contact Toxicity LD50 (95% FL)” value is 20.9 (19.22–22.65) µg/Adult and the “Contact Toxicity LD90 (95% FL)” value was 30.82 (28.35–34.42) µg/Adult. In addition, the “CAT Inhibition λ570 nm (%)” value in [6] is listed as 19.9%.

Consider `C/C=C/c1ccc(OC)cc1` [Compound C29, trans-Anethol], for which the “GST Inhibition λ340 (%)” value in data set [2] was ~ 17.5% and 17.5%. In [4], the “AChE inhibition type” value is on record as “competitive inhibition”; the “AChE Effect Inhibitor Type” value is reported as “C”; the “AChE Effect IC50 ± SD” value is reported as 4.24 ± 0.36 mg/L; the inhibitory constant (Ki) is 43.6 ± 3.46 µM. The “AChE potency, times more potent than isomer estragole (C11)” value in data set [4] (ratio of IC50) stood at 6.5 times. Further, the “Contact Toxicity LD90 (95% FL)” value in data set [5] was 46.08 (41.56–52.95) µg/Adult. In [6], the “CAT Inhibition λ570 nm (%)” value is listed as 23.3%.

Regarding `CC(C)=CCC[C@@H](C)CC=O` [Compound C33, Citronellal], the “GST Inhibition λ340 (%)” value in [2] is 4.3%. Further, in data set [8], the “Contact LD50 previously reported” value is 8.54 µg/adult. In data set [4], the “AChE inhibition type” value is recorded as “competitive inhibition”; the “AChE Effect Inhibitor Type” value is on record as “C”; the “AChE Effect IC50 ± SD” value is recorded as 7.72 ± 0.78 mg/L; the inhibitory constant (Ki) amounted to 199 ± 3.51 µM. Besides, in [5], the “Contact Toxicity LD50i (LC-95%)” value is on record as 36.94 µg/Adult, the “Contact Toxicity LD50 (95% FL)” value was 36.94 (34.60–39.14) µg/Adult and the “Contact Toxicity LD90 (95% FL)” value is 50.64 (47.46–55.39) µg/Adult.

Regarding `CC1(C)[C@H](C(=O)O[C@H](C#N)c2cccc(Oc3ccccc3)c2)[C@@H]1C=C(Br)Br` [deltamethrin], in data set [9] (1 ppm, after 14 days), the mortality is listed as 45%.

Turning to `CC(C)[C@@H]1CC[C@@H](C)CC1=O` [menthone], in data set [10], the “reduction of CAT activity” value was ~ 30%.

In the case of `CC1(C)C(C=C(Cl)Cl)C1C(=O)OCc1cccc(Oc2ccccc2)c1` (centres unmarked) [permethrin], the “reported LD50” value in data set [9] is 42.75 µg/adult.

By Ki is commonly meant a measure of affinity in units of concentration, obtained from inhibition or displacement. By mortality is commonly meant the share of the test organisms that died.
